This is an account of results in ChEMBL document CHEMBL1132242, “Stereoselective characterization of the 1,4-dihydropyridine binding site at L-type calcium channels in the resting state and the opened/inactivated state” (J Med Chem, 1999).

Several values for one entry are separate records, joined by “and”; a condition that tells them apart may be missing. Equal entries are not always repeated.

Data set [1] addresses T1, Voltage-gated L-type calcium channel (Homo sapiens, UniProt Q13936+Q13698+Q01668+O60840). Put plainly: Evaluated for the free energies of binding (delta G) (in the resting state (rs) of voltage-gated L-type [Ca2+] channel (VGCCs)). Format: protein assay.
Data set [2] has as its target T1, Voltage-gated L-type calcium channel. As to the kind of experiment: Free energy of binding (delta G) for inactivated state (is) of voltage-gated L-type [Ca2+] channel(VGCCs). Format: protein assay.
Data set [3] shares this target. Put plainly: Difference in free energies of binding (delta G) in the Resting state (rs) and inactivated state (is) of voltage-gated L-type [Ca2+] channel(VGCCs). Format: protein assay.
Data set [4] shares this target. As to the kind of experiment: Free energies of binding(delta G)in inactivated state (is) of voltage-gated L-type [Ca2+] channel(VGCCs). Format: protein assay.
The target is the same in data set [5]. Put plainly: Free energies of binding (delta G) in the Resting state (rs) of voltage-gated L-type [Ca2+] channel(VGCCs). Format: protein assay.

For the compound `COC(=O)C1=C(C)NC(C)=C(C(=O)OC)C1c1ccccc1`, the “Delta Gsolv” value was -8.706 kcal/mol and -9.458 kcal/mol. For the same compound, the Binding energy in data set [1] is -8.58 kcal/M and -10.707 kcal/M. Besides, the Binding energy in data set [2] was -10.387 kcal/M.
As for `COC(=O)C1=C(C)N=C(C)/C(=C(\O)OC)C1c1cccc(C)c1` (stereo not drawn), the “Delta Gsolv” value is -8.407 kcal/mol. In addition, the Binding energy in data set [1] is -9.93 kcal/M.
The like results for `COC(=O)C1=C(C)N=C(C)/C(=C(\O)OC)C1c1c(F)c(F)c(F)c(F)c1F` (stereo not drawn) were, in that order, -9.442 kcal/mol and -14.145 kcal/M.
The matching figures for `COC(=O)C1=C(C)N=C(C)/C(=C(\O)OC)C1c1ccc(C)cc1` (stereo not drawn): -8.19 kcal/mol and -9.79 kcal/M.
The matching figures for `COC(=O)C1=C(C)N=C(C)/C(=C(\O)OC)C1c1cccc(F)c1` (stereo not drawn): -9.56 kcal/mol and -11.58 kcal/M.
In the case of `COC(=O)C1=C(C)N=C(C)/C(=C(\O)OC)C1c1ccccc1I` (stereo not drawn), the “Delta Gsolv” value is -9.18 kcal/mol. Also, the Binding energy in data set [1] was -14.731 kcal/M.
Regarding `COC(=O)C1=C(C)N=C(C)/C(=C(\O)OC)C1c1ccccc1C#N` (stereo not drawn), the “Delta Gsolv” value is -9.74 kcal/mol. Moreover, the Binding energy in data set [1] is -12.522 kcal/M.
The like results for `COC(=O)C1=C(C)N=C(C)/C(=C(\O)OC)C1c1ccc(F)cc1` (stereo not drawn) were, in that order, -9.427 kcal/mol and -10.175 kcal/M.
The matching figures for `COC(=O)C1=C(C)N=C(C)/C(=C(\O)OC)C1c1ccccc1OC` (stereo not drawn): -10.468 kcal/mol and -10.735 kcal/M.
As for `COC(=O)C1=C(C)NC(C)=C([N+](=O)[O-])C1c1ccccc1OC(F)F` (stereo not drawn), the “Delta Gsolv” value was -14.696 kcal/mol. In addition, the Binding energy in data set [1] is -9.571 kcal/M. Moreover, in data set [2], the Binding energy is -10.474 kcal/M.
As for `COC(=O)C1=C(C)N=C(C)/C(=C(/O)OC)C1c1cccc(Cl)c1` (stereo not drawn), the “Delta Gsolv” value is -8.94 kcal/mol. Also, the Binding energy in data set [1] is -12.685 kcal/M.
For the compound `COC(=O)C1=C(C)N=C(C)/C(=C(\O)OC)C1c1ccccc1F` (stereo not drawn), the “Delta Gsolv” value was -9.804 kcal/mol. Besides, the Binding energy in data set [1] is -11.512 kcal/M.
Take `COC(=O)C1=C(C)N=C(C)/C(=C(\O)OC)C1c1ccccc1C` (stereo not drawn): the “Delta Gsolv” value was -7.993 kcal/mol. For the same compound, the Binding energy in data set [1] was -11.88 kcal/M.
Turning to `COC(=O)C1=C(C)N=C(C)/C(=C(\O)OC)C1c1ccccc1Cl` (stereo not drawn), the “Delta Gsolv” value is -9.26 kcal/mol. The Binding energy in data set [1] is -13.34 kcal/M.
The like results for `COC(=O)C1=C(C)N=C(C)/C(=C(\O)OC)C1c1ccccc1Br` (stereo not drawn) were, in that order, -9.256 kcal/mol and -14.308 kcal/M.
Consider `CO/C(O)=C1\C(C)=NC(C)=C([N+](=O)[O-])C1c1ccccc1OC(F)F` (stereo not drawn), for which the “Delta Gsolv” value is -14.543 kcal/mol. Further, in data set [1], the Binding energy was -9.26 kcal/M. The Binding energy in data set [2] is -10.564 kcal/M.
As to `CC1=C([N+](=O)[O-])C(c2ccccc2C(F)(F)F)C([N+](=O)[O-])=C(C)N1`, the “Delta Gsolv” value is -17.275 kcal/mol. The Binding energy in data set [3] was -0.85 kcal/M. In data set [1], the Binding energy is -8.256 kcal/M. In addition, the Binding energy in data set [2] is -9.11 kcal/M.
As for `CC1=C([N+](=O)[O-])C(c2ccccc2OC(F)F)C([N+](=O)[O-])=C(C)N1`, the “Delta Gsolv” value is -16.994 kcal/mol. Moreover, in data set [1], the Binding energy was -7.82 kcal/M. In addition, the Binding energy in data set [2] is -8.66 kcal/M.
Take `COC(=O)C1=C(C)NC(C)=C([N+](=O)[O-])C1c1ccccc1C(F)(F)F` (stereo in doubt; form 1): the “Delta Gsolv” value was -13.929 kcal/mol. The Binding energy in data set [3] is -1.5 kcal/M. Further, the Binding energy in data set [1] is -8.8 kcal/M. Besides, the Binding energy in data set [2] was -10.296 kcal/M.
On to `COC(=O)C1=C(C)N=C(C)/C(=C(\O)OC)C1c1cccc(C#N)c1` (stereo in doubt; form 1), for which the “Delta Gsolv” value is -10.743 kcal/mol. Further, the Binding energy in data set [1] is -9.71 kcal/M. For the same compound, the Binding energy in data set [2] was -12.108 kcal/M.
For `COC(=O)C1=C(C)N=C(C)/C(=C(\O)OC)C1c1cccc(OC)c1` (stereo in doubt; form 1), the “Delta Gsolv” value is -9.847 kcal/mol. In addition, in data set [1], the Binding energy is -9.916 kcal/M.
In the case of `COC(=O)C1=C(C)N=C(C)/C(=C(\O)OC)C1c1ccc(Cl)cc1` (stereo in doubt; form 1), the “Delta Gsolv” value is -9.2 kcal/mol. In addition, the Binding energy in data set [1] was -8.209 kcal/M. In data set [2], the Binding energy is -8.964 kcal/M.
For the compound `CC1=CC(c2ccccc2C(F)(F)F)C([N+](=O)[O-])=C(C)N1` (stereo in doubt; form 1), the “Delta Gsolv” value is -10.313 kcal/mol. Moreover, the Binding energy in data set [3] was -0.66 kcal/M. Besides, in data set [1], the Binding energy was -6.967 kcal/M. In addition, the Binding energy in data set [4] was -7.634 kcal/M.
In the case of `CC1=CC(c2ccccc2OC(F)F)C([N+](=O)[O-])=C(C)N1` (stereo in doubt; form 1), the “Delta Gsolv” value is -11.269 kcal/mol. In addition, the Binding energy in data set [1] is -7.422 kcal/M. For the same compound, the Binding energy in data set [2] was -7.783 kcal/M.
As for `COC(=O)C1=C(C)NC(C)=C([N+](=O)[O-])C1c1ccccc1C(F)(F)F` (stereo in doubt; form 2), the “Delta Gsolv” value is -14.15 kcal/mol. Also, the Binding energy in data set [3] is -0.94 kcal/M. For the same compound, the Binding energy in data set [1] was -9.7 kcal/M. For the same compound, in data set [2], the Binding energy is -10.641 kcal/M.
Turning to `COC(=O)C1=C(C)N=C(C)/C(=C(\O)OC)C1c1cccc(C#N)c1` (stereo in doubt; form 2), the “Delta Gsolv” value was -10.65 kcal/mol. Besides, the Binding energy in data set [1] is -11.84 kcal/M.
For `COC(=O)C1=C(C)N=C(C)/C(=C(\O)OC)C1c1cccc(OC)c1` (stereo in doubt; form 2), the “Delta Gsolv” value is -9.756 kcal/mol. For the same compound, the Binding energy in data set [1] was -7.819 kcal/M. In data set [2], the Binding energy was -8.461 kcal/M.
`COC(=O)C1=C(C)N=C(C)/C(=C(\O)OC)C1c1ccc(Cl)cc1` (stereo in doubt; form 2): the “Delta Gsolv” value is -8.79 kcal/mol. Moreover, the Binding energy in data set [1] was -7.666 kcal/M.
For the compound `CC1=CC(c2ccccc2C(F)(F)F)C([N+](=O)[O-])=C(C)N1` (stereo in doubt; form 2), the “Delta Gsolv” value was -10.33 kcal/mol. Further, the Binding energy in data set [3] was -0.38 kcal/M. For the same compound, in data set [1], the Binding energy is -7.36 kcal/mol. In data set [2], the Binding energy was -7.74 kcal/M.
In the case of `CC1=CC(c2ccccc2OC(F)F)C([N+](=O)[O-])=C(C)N1` (stereo in doubt; form 2), the “Delta Gsolv” value was -10.096 kcal/mol. Also, the Binding energy in data set [1] is -7.86 kcal/M. In data set [2], the Binding energy was -8.28 kcal/M.
Turning to `COC(=O)C1=C(C)NC(C)=C(C(=O)OC)C1c1ccccc1[N+](=O)[O-]` [NIFEDIPINE], the “Delta Gsolv” value is -14.117 kcal/mol and -14.198 kcal/mol. The Binding energy in data set [1] is -12.385 kcal/M. In data set [2], the Binding energy is -13.184 kcal/M. Further, the Binding energy in data set [5] is -10.502 kcal/M.
